Here are results for six molecules from patent US4766140A, “Method of inhibiting aromatase” (Eli Lilly and Company, priority 1984, dated 1988).

Assay [1] deals with T1, aromatase (Rattus norvegicus, UniProt P22443).
T1 construct: ovarian microsomes are obtained from rats treated with pregnant mares serum gonadotropin; from tissue; host or cells: ovarian microsomes from rats treated with pregnant mares serum gonadotropin
T1 sequence (P22443 1-508): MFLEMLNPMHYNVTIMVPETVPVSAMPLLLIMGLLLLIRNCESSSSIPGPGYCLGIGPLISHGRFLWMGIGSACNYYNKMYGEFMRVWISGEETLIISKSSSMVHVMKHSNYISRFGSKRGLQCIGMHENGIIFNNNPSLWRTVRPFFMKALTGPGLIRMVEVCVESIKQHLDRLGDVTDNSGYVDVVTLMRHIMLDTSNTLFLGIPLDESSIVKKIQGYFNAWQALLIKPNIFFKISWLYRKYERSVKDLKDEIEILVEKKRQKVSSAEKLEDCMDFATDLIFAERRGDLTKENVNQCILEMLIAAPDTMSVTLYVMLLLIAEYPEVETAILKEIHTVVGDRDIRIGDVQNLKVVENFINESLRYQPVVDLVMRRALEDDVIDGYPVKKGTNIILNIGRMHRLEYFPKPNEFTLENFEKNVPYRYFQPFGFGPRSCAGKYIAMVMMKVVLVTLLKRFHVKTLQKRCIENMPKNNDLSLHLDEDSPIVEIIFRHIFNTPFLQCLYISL
As to the kind of experiment: Aromatase inhibition in the rat ovarian microsome assay. It is filed as biochemical. To be noted: rat ovarian microsomes; substrate (androstenedione) concentration 0.1 μM.
Procedure: In this test system, ovarian microsomes are obtained from rats treated with pregnant mares serum gonadotropin. Test compounds are added to reaction vials containing 0.1 μM 4-androstene-3,17-dione, 100,000 dpm 1,2[^3 H]-androstenedione, the microsomes and a NADPH generating system. The concentrations of the inhibitors tested ranged between 0.005 and 10 μM.

The test system of assay [2] is DMBA-induced mammary tumors. As to the kind of experiment: DMBA-Induced Mammary Tumor Inhibition. It is filed as in vivo, female Sprague-Dawley rats. To be noted: 4 mg/kg daily subcutaneously, Test No. I. On the procedure:
Mammary tumors were produced in female Sprague-Dawley rats which were 50-60 days old by the gavage administration of 20 mg of 7,12-dimethylbenz[a]anthracene (DMBA). About six weeks after DMBA administration, the mammary glands were palpated at weekly intervals for the appearance of tumors. Whenever one or more tumors appeared and were measurable in an animal, that animal was selected for experimentation. […] Each control and test group contained 8 animals. The test compound was dissolved in corn oil and administered subcutaneously once daily. Every experiment included a group of control rats having tumors and were given corn oil vehicle subcutaneously. […] The area of each tumor was calculated by multiplying the shortest and longest diameters of the tumor. The treatment and measurement of animals continued for 3 weeks at which time the final areas of the tumors were determined. The change in the mean tumor area was determined, and the mean change was analyzed for its significance using Dunnett's t-test.

Each structure is given as a SMILES string. pEC50: −log10 of the molar value.

For orientation: pEC50 means the negative decadic logarithm of the EC50, by convention in mol/L. A high value points to a low EC50. Turning to `c1ccc(CCn2ccnc2)cc1` [1-(β-phenylethyl)imidazole], the pEC50 in assay [1] was 6.20.

Take `c1ccc(CCCn2ccnc2)cc1` [1-(3-phenylpropyl)imidazole]: in assay [1], the pEC50 is 6.31.

In assay [1], `C=CCOC(Cn1ccnc1)c1ccc(Cl)cc1Cl` (centres unmarked) [1-[2-(2,4-dichlorophenyl)-2-(2-propenyloxy)ethyl]-1H-imidazole] had a pEC50 of 7.38. Besides, the “Mean Tumor Area, Finish” value in assay [2] (after 3 weeks, statistically different from control, p < 0.05 (control 392.0)) amounted to 119.0 mm^2. Further, the “Mean Tumor Area, Start” value in assay [2] (start of test) is listed as 55.2 mm^2.

As for `COc1ccc(OC)c(C(O)Cn2ccnc2)c1` (stereo not drawn) [α-(2,5-dimethoxyphenyl)-1H-imidazole-1-ethanol nitrate], the pEC50 in assay [1] was 5.82.

`O=[N+]([O-])c1ccc(CCn2ccnc2)cc1` [1-[2-(4-nitrophenyl)ethyl]-1H-imidazole]: the pEC50 in assay [1] is over 7.30.

In assay [1], `Clc1ccc(C(Cn2ccnc2)OCc2ccsc2Cl)c(Cl)c1` (centres unmarked) [1-(2-[(2-chloro-3-thienyl)-methoxy]-2-[2,4-dichlorophenyl]-ethyl)-1H-imidazole] showed a pEC50 of 7.22.
